Molecular target: T1, human Nav1.7 (Homo sapiens, UniProt Q15858)
T1 construct: expressed in transfected cells
Assay: Assessment of Nav1.7 activity on PatchXpress (voltage dependence / slow inactivation parameters)
Format: cell-based
Conditions: compound at 10 μM, relative to 0.2% DMSO vehicle control; for hNav1.7: Reduction in current at 20 mV (normalized data) Delta Ratio: before/after 30 sec conditioning pulse at 20 mV; for hNav1.7: Shift in voltage dependence of inactivation (mV) Delta Vhalf: PatchXpress
Description: The generation of a HEK 293F cell line stably expressing human Nav1.7/Navp1 was achieved by co-transfecting human SCN9A and human SCN1B cDNAs, subcloned into plasmid vectors, utilizing standard transfection techniques. Clones were selected using appropriate selection agents (0.3 mg/mL Zeocin and 0.8 mg/mL Geneticin) and maintained in Dulbecco's Modified Eagle medium, 10% fetal bovine serum, 1% non-essential amino acids to ˜80% confluence at 37° C. in a humidified incubator with 95% atmosphere and 5% CO2.
On the day of each experiment, cells that were grown to 80% confluence in a T75 flask were harvested for use on PatchXpress (Molecular Devices, CA, USA). Following a recovery period at 37° C. in a humidified incubator with 95% atmosphere and 5% CO2 in Dulbecco's Modified Eagle Medium, the media was replaced with an external recording solution containing (in mM): 90 TEACI, 50 NaCl, 1.8 CaCl2, 1 MgCl2, 10 HEPES, 10 glucose, adjusted to pH 7.4 with TEAOH and 300 mOsm with sucrose. The internal recording solution contained (in mM): 129 CsF, 2 MgCl2, 11 EGTA, 10 HEPES, 6 NaCl, 3 Na2ATP adjusted to pH 7.2 with CsOH and 280 mOsm with sucrose. The automated liquid handling facility of PatchXpress dispensed cells and added compound. Modulation of Nav1.7 channels by compounds was assessed by promoting the channels into the inactivated state using a conditioning voltage pulse of variable amplitude, followed by a brief hyperpolarizing pulse with a subsequent depolarized voltage step to measure the current amplitude in the presence and absence of compound. Compounds were assayed at 10 μM. Based upon this Patch express protocol, four electrophysiological parameters were measured relative to a 0.2% DMSO vehicle control (Table 2).

T1 sequence (Q15858 whole entry): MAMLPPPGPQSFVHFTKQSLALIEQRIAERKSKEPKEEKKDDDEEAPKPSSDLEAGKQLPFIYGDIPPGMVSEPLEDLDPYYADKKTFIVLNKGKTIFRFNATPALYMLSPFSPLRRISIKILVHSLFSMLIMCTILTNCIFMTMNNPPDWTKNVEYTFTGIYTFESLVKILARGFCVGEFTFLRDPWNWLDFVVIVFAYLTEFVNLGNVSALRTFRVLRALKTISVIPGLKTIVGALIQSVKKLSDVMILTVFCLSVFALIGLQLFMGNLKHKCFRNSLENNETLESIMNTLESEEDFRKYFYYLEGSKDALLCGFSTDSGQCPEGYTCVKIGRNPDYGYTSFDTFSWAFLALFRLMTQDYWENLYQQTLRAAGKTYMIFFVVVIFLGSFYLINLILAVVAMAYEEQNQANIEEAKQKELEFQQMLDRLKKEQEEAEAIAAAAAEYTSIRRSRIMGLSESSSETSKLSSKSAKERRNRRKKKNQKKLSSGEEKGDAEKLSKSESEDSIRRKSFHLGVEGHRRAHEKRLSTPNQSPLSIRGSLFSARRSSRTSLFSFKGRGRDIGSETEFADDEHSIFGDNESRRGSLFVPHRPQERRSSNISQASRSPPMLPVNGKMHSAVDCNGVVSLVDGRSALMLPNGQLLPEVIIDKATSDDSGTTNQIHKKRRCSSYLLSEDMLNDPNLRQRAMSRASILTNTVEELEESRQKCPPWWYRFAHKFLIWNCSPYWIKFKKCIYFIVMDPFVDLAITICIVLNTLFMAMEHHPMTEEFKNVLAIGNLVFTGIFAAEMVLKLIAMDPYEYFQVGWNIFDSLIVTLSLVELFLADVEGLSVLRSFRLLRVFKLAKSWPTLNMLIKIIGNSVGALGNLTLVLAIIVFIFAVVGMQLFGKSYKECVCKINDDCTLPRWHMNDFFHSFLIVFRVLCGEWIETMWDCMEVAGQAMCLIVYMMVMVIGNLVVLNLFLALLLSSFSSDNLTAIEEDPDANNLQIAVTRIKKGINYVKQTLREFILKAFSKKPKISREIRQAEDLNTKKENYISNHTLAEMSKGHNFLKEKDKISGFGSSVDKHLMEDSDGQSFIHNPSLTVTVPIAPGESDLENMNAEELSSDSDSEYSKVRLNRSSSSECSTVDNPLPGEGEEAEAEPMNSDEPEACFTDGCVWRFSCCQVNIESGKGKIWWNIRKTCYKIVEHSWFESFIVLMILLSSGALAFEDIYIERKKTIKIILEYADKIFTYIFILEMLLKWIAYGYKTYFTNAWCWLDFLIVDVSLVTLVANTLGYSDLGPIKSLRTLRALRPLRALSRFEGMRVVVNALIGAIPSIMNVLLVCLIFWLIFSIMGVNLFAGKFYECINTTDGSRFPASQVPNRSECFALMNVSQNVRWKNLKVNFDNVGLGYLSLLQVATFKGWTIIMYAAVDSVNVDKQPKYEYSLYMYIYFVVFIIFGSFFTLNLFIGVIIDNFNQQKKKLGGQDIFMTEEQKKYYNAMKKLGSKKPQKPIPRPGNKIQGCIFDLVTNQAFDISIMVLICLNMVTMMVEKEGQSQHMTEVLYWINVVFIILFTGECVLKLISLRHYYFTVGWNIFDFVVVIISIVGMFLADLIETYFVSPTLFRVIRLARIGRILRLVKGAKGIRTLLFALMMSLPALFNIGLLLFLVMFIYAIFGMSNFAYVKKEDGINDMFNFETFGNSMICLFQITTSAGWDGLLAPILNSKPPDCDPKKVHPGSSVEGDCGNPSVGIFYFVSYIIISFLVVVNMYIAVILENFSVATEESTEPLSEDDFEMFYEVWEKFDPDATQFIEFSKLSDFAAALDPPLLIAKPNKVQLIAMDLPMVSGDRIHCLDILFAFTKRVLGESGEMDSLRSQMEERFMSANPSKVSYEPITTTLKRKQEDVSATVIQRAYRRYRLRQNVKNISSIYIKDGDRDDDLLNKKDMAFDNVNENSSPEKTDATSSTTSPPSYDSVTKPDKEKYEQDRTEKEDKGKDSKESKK
T1 sequence (Q07699 19-218 partner): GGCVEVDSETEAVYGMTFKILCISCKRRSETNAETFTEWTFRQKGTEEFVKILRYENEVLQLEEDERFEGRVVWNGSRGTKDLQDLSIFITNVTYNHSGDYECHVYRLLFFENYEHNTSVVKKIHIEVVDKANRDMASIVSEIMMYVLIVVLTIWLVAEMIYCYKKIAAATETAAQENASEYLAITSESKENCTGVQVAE

Compound | hNav1.7: Reduction in current at 20 mV (normalized data) Delta Ratio | hNav1.7: Voltage dependence of activation (mV) VDEP [mV] | hNav1.7: Voltage dependence of fast inactivation (mV) VDEP [mV] | hNav1.7: Shift in voltage dependence of inactivation (mV) Delta Vhalf [mV]
N[C@H](Cc1cccc(F)c1)c1nc2cc(C(F)(F)F)cc(C(F)(F)F)c2[nH]1 [Compound 55, (R)-1-(4,6-bis(trifluoromethyl)-1H-benzo[d]imidazol-2-yl)-2-(3-fluorophenyl)ethan-1-amine] | −0.26 | −8.6 | −6.2 | −15.1
N[C@H](c1ccccc1)c1nc2cc(C(F)(F)F)cc(C(F)(F)F)c2[nH]1 [Compound 57, (R)-(4,6-bis(trifluoromethyl)-1H-benzo[d]imidazol-2-yl)(phenyl)methanamine] | −0.21 | −4.7 | −4.8 | −10.4
O=C1CNCCN1Cc1nc2cc(Br)ccc2[nH]1 [Compound 63, 1-((6-bromo-1H-benzo[d]imidazol-2-yl)methyl)piperazin-2-one] | −0.17 | −8.1 | −6.4 | −9.7
CC(C)(c1nc2cc(F)cc(F)c2[nH]1)N1CCNCC1=O [Compound 64, 1-(2-(4,6-difluoro-1H-benzo[d]imidazol-2-yl)propan-2-yl)piperazin-2-one] | −0.16 | −7.1 | −5.9 | −5.4
O=C1CNCCN1CCCc1nc2cc(F)cc(F)c2[nH]1 [Compound 68, 1-(3-(4,6-difluoro-1H-benzo[d]imidazol-2-yl)propyl)piperazin-2-one] | −0.1 | −11.6 | −4.9 | −11.4
CC(C)(CN1CCNCC1=O)c1nc2cc(F)cc(F)c2[nH]1 [Compound 70, 1-(2-(4,6-difluoro-1H-benzo[d]imidazol-2-yl)-2-methylpropyl)piperazin-2-one] | −0.08 | −5.3 | −5.7 | −4.6
N[C@H](Cc1cccc(C(F)(F)F)c1)C(=O)NCc1nc2ccc(-c3ccc(F)c(Cl)c3)cc2[nH]1 [Compound 71, (R)-2-amino-N-((6-(3-chloro-4-fluorophenyl)-1H-benzo[d]imidazol-2-yl)methyl)-3-(3-(trifluoromethyl)phenyl)propanamide] | −0.07 | −10.5 | −6.3 | −8.5
CC(C)(C)OC(=O)N[C@H](Cc1cccc(C(F)(F)F)c1)C(=O)NCc1nc2ccc(Br)cc2[nH]1 [Compound 72, tert-butyl (R)-(1-(((6-bromo-1H-benzo[d]imidazol-2-yl)methyl)amino)-1-oxo-3-(3-(trifluoromethyl)phenyl)propan-2-yl)carbamate] | −0.07 | −3.3 | −7.3 | −6.7
CC(C)(C)OC(=O)N[C@H](Cc1cccc(C(F)(F)F)c1)C(=O)NCc1nc2c(C(F)(F)F)cc(C(F)(F)F)cc2[nH]1 [Compound 73, tert-butyl (R)-(1-(((4,6-bis(trifluoromethyl)-1H-benzo[d]imidazol-2-yl)methyl)amino)-1-oxo-3-(3-(trifluoromethyl)phenyl)propan-2-yl)carbamate] | −0.07 | −12.5 | −5.4 | −3.7
N[C@H](Cc1cccc(C(F)(F)F)c1)C(=O)NCc1nc2ccc(Br)cc2[nH]1 [Compound 74, (R)-2-amino-N-((6-bromo-1H-benzo[d]imidazol-2-yl)methyl)-3-(3-(trifluoromethyl)phenyl)propanamide] | −0.07 | −3.7 | −8.8 | −7.4

Next, values leading:

hNav1.7: Reduction in current at 20 mV (normalized data) Delta Ratio | hNav1.7: Voltage dependence of activation (mV) VDEP [mV] | hNav1.7: Voltage dependence of fast inactivation (mV) VDEP [mV] | hNav1.7: Shift in voltage dependence of inactivation (mV) Delta Vhalf [mV] | Compound
−0.21 | −14.4 | −3.3 | −16.8 | N[C@H](Cc1ccc(F)cc1)Cc1nc2cc(C(F)(F)F)cc(C(F)(F)F)c2[nH]1 [Compound 56, (R)-1-(4,6-bis(trifluoromethyl)-1H-benzo[d]imidazol-2-yl)-3-(4-fluorophenyl)propan-2-amine]
−0.21 | −4 | −4.9 | −8.6 | N[C@@H](c1ccc(F)cc1)c1nc2cc(C(F)(F)F)cc(C(F)(F)F)c2[nH]1 [Compound 58, (S)-(4,6-bis(trifluoromethyl)-1H-benzo[d]imidazol-2-yl)(4-fluorophenyl)methanamine]
−0.2 | −9 | −5.9 | −12.8 | FC(F)(F)c1cc(C(F)(F)F)c2[nH]c(C3NCc4ccccc43)nc2c1 (centres unmarked) [Compound 59, 2-(isoindolin-1-y)-4,6-bis(trifluoromethyl)-1H-benzo[d]imidazole]
−0.19 | −8.3 | −3.8 | −9.2 | CC(C)(c1nc2cc(C(F)(F)F)cc(C(F)(F)F)c2[nH]1)N1CCNCC1=O [Compound 60, 1-(2-(4,6-bis(trifluoromethyl)-1H-benzo[d]imidazol-2-yl)propan-2-yl)piperazin-2-one]
−0.19 | −11.3 | −5.1 | −9.2 | O=C(CCc1nc2cc(C(F)(F)F)cc(C(F)(F)F)c2[nH]1)N1CCNCC1 [Compound 61, 3-(4,6-bis(trifluoromethyl)-1H-benzo[d]imidazol-2-yl)-1-(piperazin-1-yl)propan-1-one]
−0.19 | −7.4 | −3.8 | −12.5 | CC(C)(CC(=O)N1CCNCC1)c1nc2cc(C(F)(F)F)cc(C(F)(F)F)c2[nH]1 [Compound 62, 3-(4,6-bis(trifluoromethyl)-1H-benzo[d]imidazol-2-yl)-3-methyl-1-(piperazin-1-yl)butan-1-one]
−0.16 | −8.1 | −6.2 | −3.5 | CC(C)(CN1CCNCC1=O)c1nc2cc(C(F)(F)F)cc(C(F)(F)F)c2[nH]1 [Compound 65, 1-(2-(4,6-bis(trifluoromethyl)-1H-benzo[d]imidazol-2-yl)-2-methylpropyl)piperazin-2-one]
−0.14 | −14.5 | −6.9 | −12.0 | O=C(CCc1nc2cc(F)cc(F)c2[nH]1)N1CCNCC1 [Compound 66, 3-(4,6-difluoro-1H-benzo[d]imidazol-2-yl)-1-(piperazin-1-yl)propan-1-one]
−0.13 | −9.7 | −7.6 | −7.8 | CC(C)(CC(=O)N1CCNCC1)c1nc2cc(F)cc(F)c2[nH]1 [Compound 67, 3-(4,6-difluoro-1H-benzo[d]imidazol-2-yl)-3-methyl-1-(piperazin-1-yl)butan-1-one]
−0.09 | −9.2 | −4.9 | −7.5 | O=C1CNCCN1CCCc1nc2cc(C(F)(F)F)cc(C(F)(F)F)c2[nH]1 [Compound 69]

Source: US20170107203A1, “HETEROCYCLIC INHIBITORS OF THE SODIUM CHANNEL” (EPIRUS BIOPHARMACEUTICALS, INC., priority 2014, published 2017)
